For 25 compounds, melting point results are on record in patent US7229987B2, “Multicyclic compounds for use as melanin concentrating hormone antagonists in the treatment of obesity and diabetes” (Eli Lilly and Company, priority 2002, dated 2007).

Where a name gives a salt, the structure may show the parent alone.

The term melting point denotes the temperature, or range, at which the solid turns liquid. `c1ccc(OCCSCc2nnc(-c3ccc(OCCN4CCSCC4)cc3)o2)cc1` [Example 90, 4-(2-{4-[5-(2-phenoxy-ethylsulfanylmethyl)-[1,3,4]oxadiazol-2-yl]-phenoxy}-ethyl)-thiomorpholine] had a melting point of 60 °C.
`CNCCCOc1ccc(-c2nnc(CSCCOc3ccccc3)o2)cc1` [Example 77, methyl-(3-{4-[5-(2-phenoxy-ethylsulfanylmethyl)-[1,3,4]oxadiazol-2-yl]-phenoxy}-propyl)-amine] gave a melting point of 40 to 44 °C.
`c1ccc(OCCSCc2nnc(-c3ccc(OCCCN4CCCC4)cc3)o2)cc1` [Example 88, 2-(2-phenoxy-ethylsulfanylmethyl)-5-[4-(3-pyrrolidin-1-yl-propoxy)-phenyl]-[1,3,4]oxadiazole]: the melting point was found to be 70 °C.
Compound `CN(C)CCCCNC(=O)c1ccccc1-c1nnc(CSCCOc2ccccc2)o1` [Example 63, N-(4-dimethylamino-butyl)-2-[5-(2-phenoxy-ethylsulfanylmethyl)-[1,3,4]oxadiazol-2-yl]-benzamide] registered a melting point of 62 to 65 °C.
`CCN(CC)CCOc1ccc(-c2nnc(CSCCOc3ccccc3)o2)cc1` [Example 85, diethyl-(2-{4-[5-(2-phenoxy-ethylsulfanylmethyl)-[1,3,4]oxadiazol-2-yl]-phenoxy}-ethyl)-amine] returned a melting point of 32 to 35 °C.
The compound `N#CCCCOc1ccc(-c2nnc(CSCCOc3ccccc3)o2)cc1` [Example 264, 4-{4-[5-(2-phenoxy-ethylsulfanylmethyl)-[1,3,4]oxadiazol-2-yl]-phenoxy}-butyronitrile] yielded a melting point of 67 to 68 °C.
`CN(C)CCCOc1ccc(-c2nnc(CSCCOCc3ccccc3)o2)cc1` (as salt: maleate) [Example 282, (3-{4-[5-(2-phenylmethoxy-ethylsulfanylmethyl)-[1,3,4]oxadiazol-2-yl]-phenoxy}-propyl)-dimethyl-amine]: the melting point fell in the range of 71.5 to 72 °C.
`c1ccc(OCCSCc2nnc(-c3ccc(OCCCN4CCCCCC4)cc3)o2)cc1` [Example 83, 1-(3-{4-[5-(2-phenoxy-ethylsulfanylmethyl)-[1,3,4]oxadiazol-2-yl]-phenoxy}-propyl)-azepane]: the melting point was 50 °C.
`CN(C)CCCOc1ccc(-c2nnc(CSCCOc3ccccc3)o2)nc1` [Example 289, dimethyl-(3-{6-[5-(2-phenoxy-ethylsulfanylmethyl)-[1,3,4]oxadiazol-2-yl]-pyridin-3-yloxy}-propyl)-amine] displayed a melting point of 47 to 49 °C.
In the case of `CN(C)CCCOc1ccc(-c2nnc(CSCCOc3ccccc3)o2)cn1` [Example 288, dimethyl-(3-{5-[5-(2-phenoxy-ethylsulfanylmethyl)-[1,3,4]oxadiazol-2-yl]-pyridin-2-yloxy}-propyl)-amine] it was 69 to 70 °C.
The figure for `O=C(Nc1ccc(-c2nnc(CSCCOc3ccccc3)o2)cc1)N1CCCC1` [Example 103, pyrrolidine-1-carboxylic acid {4-[5-(2-phenoxy-ethylsulfanylmethyl)-[1,3,4]oxadiazol-2-yl]-phenyl}-amide] is 184 to 185 °C; for `c1ccc(OCCSCc2nnc(-c3ccc(OCCCCN4CCCCC4)cc3)o2)cc1` [Example 81, 1-(4-{4-[5-(2-phenoxy-ethylsulfanylmethyl)-[1,3,4]oxadiazol-2-yl]-phenoxy}-butyl)-piperidine] it is 57 to 62 °C; for `CN(C)CCNC(=S)Nc1ccc(-c2nnc(CSCCOc3ccccc3)o2)cc1` [Example 117, 1-(2-dimethylamino-ethyl)-3-{4-[5-(2-phenoxy-ethylsulfanylmethyl)-[1,3,4]oxadiazol-2-yl]-phenyl}-thiourea] it is 155 to 158 °C.
The compound `O=C(NCCN1CCCCC1)Nc1ccc(-c2cnc(COCc3cc4ccccc4o3)o2)cc1` [Example 256, 1-{4-[2-(benzofuran-2-ylmethoxymethyl)-oxazol-5-yl]-phenyl}-3-(2-piperidin-1-yl-ethyl)-urea] came in with a melting point of 102 to 104 °C.
In the case of `c1ccc(OCCSCc2ncc(-c3ccc(OCCN4CCCCCC4)cc3)o2)cc1` [Example 265, 1-(2-{4-[2-(2-phenoxy-ethylsulfanylmethyl)-oxazol-5-yl]-phenoxy}-ethyl)-azepane], the melting point was in the range of 35 to 38 °C.
Regarding `CN(C)CCCOc1c(Cl)cc(-c2nnc(CSCCOc3ccccc3)o2)cc1Cl.O=C(O)/C=C/C(=O)O` [Example 283, (3-{2,6-dichloro-4-[5-(2-phenoxy-ethylsulfanylmethyl)-[1,3,4]oxadiazol-2-yl]-phenoxy}-propyl)-dimethyl-amine; fumaric acid salt], the melting point is 95 to 99 °C.
Consider `CN(C)CCNc1ccc(-c2nnc(CSCCOc3ccccc3)o2)cn1` [Example 258, N,N-dimethyl-M-{5-[5-(2-phenoxy-ethylsulfanylmethyl)-[1,3,4]oxadiazol-2-yl]-pyridin-2-yl}-ethane-1,2-diamine], for which the melting point lay in the range of 97 to 98 °C.
As to `CN(C)CCCOc1ccc(-c2nnc(CSCCCCOc3ccccc3)o2)cc1` [Example 50, dimethyl-(3-{4-[5-(4-phenoxybutylsulfanylmethyl)-[1,3,4]oxadiazol-2-yl]-phenoxy}-propyl)-amine], the melting point was in the range of 69 to 73 °C.
In the case of `c1ccc(OCCSCc2nnc(-c3ccc(OCCN4CCCCC4)cc3)o2)cc1` [Example 72, 1-(2-{4-[5-(2-phenoxy-ethylsulfanylmethyl)-[1,3,4]oxadiazol-2-yl]-phenoxy}-ethyl)-piperidine] it was 70 °C.
In the case of `c1ccc(OCCSCc2nnc(-c3ccc(OCc4ccncc4)cc3)o2)cc1` [Example 98, 4-{4-[5-(2-phenoxy-ethylsulfanylmethyl)-[1,3,4]oxadiazol-2-yl]-phenoxymethyl}-pyridine] it was 80 to 90 °C.
In the case of `CN(C)CCNC(=O)Nc1ccc(-c2cnc(CSCCOc3ccccc3)o2)cc1.O=C(O)/C=C\C(=O)O` [Example 250, 1-(2-Dimethylamino-ethyl)-3-{4-[2-(2-phenoxy-ethylsulfanylmethyl)-oxazol-5-yl]-phenyl}-urea maleate], the melting point was 105 to 107 °C.
In turn, `CCN(CC)CCCCOc1ccc(-c2nnc(CSCCOc3ccccc3)o2)cc1` [Example 93, diethyl-(4-{4-[5-(2-phenoxy-ethylsulfanylmethyl)-[1,3,4]oxadiazol-2-yl]-phenoxy}-butyl)-amine] came in with a melting point of 35 to 38 °C.
In the case of `COCCSCc1nnc(-c2ccc(OCCCN(C)C)cc2)o1` (as salt: maleate) [Example 281, (3-{4-[5-(2-methoxy-ethylsulfanylmethyl)-[1,3,4]oxadiazol-2-yl]-phenoxy}-propyl)-dimethyl-amine] it was 97.5 to 99 °C; in that of `O=C1N(CCN2CCCC2)CCN1c1ccc(-c2nnc(CSCCOc3ccccc3)o2)cc1` [Example 257, 1-{4-[5-(2-phenoxy-ethylsulfanylmethyl)-[1,3,4]oxadiazol-2-yl]-phenyl}-3-(2-pyrrolidin-1-yl-ethyl)-imidazolidin-2-one], 125 to 129 °C.
Take `c1ccc(OCCSCc2nnc(-c3ccc(OCCCCN4CCCC4)cc3)o2)cc1` [Example 80, 2-(2-phenoxy-ethylsulfanylmethyl)-5-[4-(4-pyrrolidin-1-yl-butoxy)-phenyl]-[1,3,4]oxadiazole]: the melting point turned out to be 45 °C.
